Laboratory results published in patent US10568925B2, “Extracts of Curcuma amada and uses thereof” (DHARMA BIOMEDICAL, LLC, priority 2015, dated 2020).
Read-outs that look alike come from different tables or passages of the source.

Assays:
[1] = test system: U-87MG human glioblastoma cell line; experiment: MTT cytotoxicity in U-87MG glioblastoma cells; type: cell-based; details: 72 hours
Description: Human glioblastoma cell line (U-87MG) was purchased from American Type Culture Collection, Manassas, Va. and the cells were grown in RPMI medium supplemented with 10% fetal bovine serum (FBS) and antibiotics in a humidified 5% CO2 incubator maintained at 37° C. The normal mouse embryonic hypothalamus cell line (mHypoE-N1) was purchased from CELLutions Biosystems, Inc, Burlington, Ontario, Canada and was grown in DMEM, supplemented with 10% FBS and antibiotics in the CO2 incubator.
Glioblastoma (U-87MG) cells were treated with increasing concentrations of CA, temozolomide, etoposide or their combination for 72 hours in 96-well plates. MTT [3-(4,5-Dimethyl thiazol-2-yl)-2,5-diphenyltetrazolium bromide] assay performed with the Cell Proliferation Kit I (Roche Biochemicals, IN) was used to analyze cytotoxicity of individual drugs/extracts and their combinations. The experiments were repeated four times with three replications for each treatment and the IC50, IC75 and IC90 values were calculated (Ramachandran et al. 2010; Ramachandran et al. 2012). The relative cytotoxicity of CA in normal mouse hypothalamus cell line (mHypoE-N1) was also analyzed to compare the toxicity and specificity of CA in normal and brain tumor cells.
Mean inhibitory concentrations (ICs) and standard deviation estimates were calculated using Microsoft Excel software using data from three separate experiments. The fraction of surviving cells at each concentration of drugs/combinations was used for the analysis of synergism/additiveness/antagonism between drugs/extracts by the CompuSyn software (ComboSyn, Inc., Paramus, N.J.).

RD cell line = experiment: RT-PCR gene expression, RD; type: cell-based, human; details: 72 h
Description: (§1) FIGS. 20A-20B: Gene expression analysis of apoptotic genes (p53, Bcl-2, Bax and Bak) by RT-PCR in eRMS RD (FIG. 20A) and aRMS SJRH30 (FIG. 20B) cells treated with VBL, CP, CA and their combinations. Total RNA was extracted from cells treated with drugs and their combinations for 72 h and RT-PCR assay performed with 5 μg of RNA using gene specific primers. The house keeping gene GAPDH is also amplified as control.
(§2) mRNA expression of apoptosis-associated genes (Bax, Bcl-2, Bak and p53) and inflammation-associated genes (Cox-2, NF-κB and STATS) were analyzed by reverse transcriptase-polymerase chain reaction (Ramachandran et al. 2012). The expression of a house keeping gene, Glyceraldehyde 3-phosphate dehydrogenase (GAPDH) was used as a control. The relative expression of genes was quantified using gel pictures by the UNSCAN-IT GEL′ software (Silk Scientific, Inc., Orem, Utah). Since the ratios of Bax/Bcl-2, Bak/Bcl-2 and Bax/Bak expression were very much associated with the fate of cells undergoing apoptosis, these estimates were calculated and plotted against drug concentrations (Ramachandran et al. 2012).

SJRH30 cell line = experiment: RT-PCR gene expression, SJRH30; type: cell-based, human; details: SJRH30, 72 h
Description: as §1, §2

[2] = test system: alveolar (SJRH30) rhabdomyosarcoma cell line; experiment: MTT cytotoxicity in alveolar rhabdomyosarcoma cells; type: cell-based, human; details: for IC50 / IC90: Homo sapiens
Description: (§3) Both aRMS (SJRH30) and eRMS (RD) cell lines were purchased from American Type Culture Collection, Manassas, Va. SJRH30 and RD cells were grown in Rosewell Park Memorial Institute 1640 (RPMI 1640) and Dulbecco's Modified Eagle's medium (DMEM), respectively, supplemented with 10% FBS and antibiotics in a 5% CO2 incubator.
(§4) Rhabdomyosarcoma cells were treated with increasing concentrations of drugs and/or extracts for 72 hours in 96-well plates. MTT assay performed with the Cell Proliferation kit I (Roche Biochemicals, IN) was used to analyze cytotoxicity of individual drugs, extracts and their combinations (Ramachandran et al. 2012).
(§5) Mean inhibitory concentrations (ICs) and standard deviation estimates were calculated using Microsoft Excel software. The fraction of surviving cells at each concentration of drugs/combinations was used for the analysis of synergism/additiveness/antagonism between drugs/extracts by the CompuSyn software (ComboSyn, Inc., Paramus, N.J.). Synergism was evaluated by the Combination Index (CI) method of Chou and Talalay (1983) which is based on the median-effect principle. The CIs were calculated by the Chou-Talalay equations for multiple drug effects which take into account both potency (IC values) and shape (slope, m) of dose-effect curve (Ramachandran et al. 2010).

[3] = test system: embryonal (RD) rhabdomyosarcoma cell line; experiment: MTT cytotoxicity in embryonal rhabdomyosarcoma cells; type: cell-based, human; details: for IC50 / IC90: Homo sapiens, Rhabdomyosarcoma cell
Description: as §3, §4, §5

[4] = test system: aRMS (SJRH30) nude mice xenografts; experiment: Rhabdomyosarcoma xenograft study; type: in vivo
Description: Male athymic nude (nu/nu) mice of the NCrNUstrain (4 weeks old weighing 18-22 g) were purchased from Taconic Labs, German Town, N.Y. Tissue cultured SJRH30 aRMS cells (10^7 cells/site) in 0.1 ml of Hank's balanced salt solution were injected subcutaneously into the left and right flank of the nude mice with a 21-guage needle. When the tumors measured 0.5 cm^3, therapy was started with 20 mice in each group. Treatment groups included control (saline), 2 mg/kg VBL, 10 mg/kg CA and 2 mg/kg VBL+10 mg/kg CA. VBL was dissolved in saline and administered intraperitoneally on alternate days for a total of 10 injections starting on the first day of tumor measurement and treatment. CA was initially dissolved in ethanol and diluted in water so as to make 0.1% alcohol in it and given as drinking water for the entire duration of the study. Tumor size (length×width), body weight and survival data were collected twice a week. Tumor measurements were recorded using a vernier caliper and tumor volume and tumor growth rates were calculated according to the formula described earlier (Ramachandran et al. 2003; 2006). Tumor growth rate data was analyzed by one-way analysis of variance (ANOVA) with Dunnett's multiple comparison test. Survival data was analyzed with Kaplan Meier statistics using Graphpad Prism software and significant differences among treatment groups were calculated.

[5] = test system: U-87MG nude mice xenografts; experiment: Glioblastoma xenograft study; type: in vivo; details: vs olive oil control; IR 50 mg/kg intraperitoneally, CA (50/mg) gavage; p<0.05
Description: FIG. 16: Inhibition of tumor growth rate in U-87MG xenografts treated with olive oil (control), irinotecan (IR), CA, and IR+CA in combination. Xenografts (n=15/group) were administered intraperitoneally with olive oil (control) or IR (50 mg/kg), whereas CA (50/mg) was given gavage (introduction directly to the stomach). Tumor measurements are recorded twice per week and mean±SD estimates of tumor growth rate are plotted against days after treatment (*p<0.05; **p<0.01, ***p<0.001 as compared to control).
FIG. 17: Kaplan-Meier survival curve analysis of glioblastoma (U-87MG) nude mice xenografts treated with olive oil control, IR, CA, and IR+CA. The difference between treatment groups are significant (*p<0.05).

| Structure (SMILES) | IC75 [1] [µg/mL] | IC50 ([1]; Homo sapiens) [µg/mL] | IC90 ([1]; Homo sapiens, read-out: IC90) [µg/mL] | expression of Bcl-2 (RD cell line) | expression of p53, Bax and Bak (RD cell line) | expression of Bcl-2 (SJRH30 cell line) | expression of p53, Bax and Bak (SJRH30 cell line) | IC75 ([2]; SJRH30, 72 hours, MTT) [µg/mL] | IC75 ([3]; RD, 72 hours, MTT) [µg/mL] | other results |
| --- | --- | --- | --- | --- | --- | --- | --- | --- | --- | --- |
| COc1cc(/C=C/C(=O)CC(=O)/C=C/c2ccc(O)c(OC)c2)ccc1O [CUR, curcumin] | 51.00 ± 7.07 | 37.3 ± 4.04 | > 200 |  |  |  |  |  |  | IC90 [1]: >200 µg/mL; IC75 ([1]; listed as curcumin): 51.00 ± 7.07 µg/mL |
| COc1cc([C@@H]2c3cc4c(cc3[C@@H](O[C@@H]3O[C@@H]5CO[C@@H](C)O[C@H]5[C@H](O)[C@H]3O)[C@H]3COC(=O)[C@H]23)OCO4)cc(OC)c1O [ETP, etoposide] | 127.50 ± 3.53 | 6.5 ± 2.54 | > 200 |  |  |  |  |  |  |  |
| CC[C@]1(O)C[C@@H]2CN(CCc3c([nH]c4ccccc34)[C@@](C(=O)OC)(c3cc4c(cc3OC)N(C)[C@H]3[C@@](O)(C(=O)OC)[C@H](OC(C)=O)[C@]5(CC)C=CCN6CC[C@]43[C@@H]65)C2)C1 [Vinblastine (VBL), Vinblastine] |  |  |  | decrease | increase | decrease | increase | 36.110 ± 2.970 | 0.200 ± 0.010 | IC50 ([2]; SJRH30, 72 hours, MTT, read-out: IC50): 0.191 ± 0.01 µg/mL; IC90 ([2]; SJRH30, 72 hours, MTT, read-out: IC90): > 200 µg/mL; IC50 ([3]; RD, 72 hours, MTT, read-out: IC50): 0.01 ± 0.002 µg/mL; IC90 ([3]; RD, 72 hours, MTT, read-out: IC90): > 200 µg/mL; weight gain of xenografts / overall weight loss ([4]; mouse, in vivo): absence of any overall weight loss; tumor growth rate ([4]; vs saline control, VBL 2 mg/kg intraperitoneally, CA 10 mg/kg in drinking water, p<0.001 by ANOVA): significantly inhibited |
| O=P1(N(CCCl)CCCl)NCCCO1 (centres unmarked) [Cyclophosphamide (CP), Cyclophosphamide] |  |  |  | decrease | increase | decrease | increase | >200 | >200 | cell death ([2]; 200 μg/ml dose, aRMS cells): 45%; IC50 ([2]; SJRH30, 72 h): > 200 µg/mL; IC90 ([2]; SJRH30, 72 h): > 200 µg/mL; IC50 ([3]; 72 h): 172 ± 8.53 µg/mL; IC90 ([3]; 72 h): > 200 µg/mL |
| CCc1c2c(nc3ccc(OC(=O)N4CCC(N5CCCCC5)CC4)cc13)-c1cc3c(c(=O)n1C2)COC(=O)[C@]3(O)CC [IR, irinotecan] |  |  |  |  |  |  |  |  |  | tumor growth rate [5]: significantly inhibited |
| Cn1nnc2c(C(N)=O)ncn2c1=O [TMZ, temozolomide] | >200 | 176 ± 10.5 | > 200 |  |  |  |  |  |  |  |
